Reference: ChEMBL document CHEMBL1201862, “PubChem BioAssay data set” (2004)
Active and inactive are the calls of the source.

How the values were obtained:
[1] = target: T1, Microphthalmia-associated transcription factor (Homo sapiens, UniProt O75030); assay: reducers of TRPM1 reporter luminescence, concentration series – cell-based, SK-MEL-5, cherry-picked, set 3, MITF inhibitor project, dose response (AID 493073); type: functional;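 further: SK-MEL-5 melanoma cells with luciferase driven by the MITF target TRPM1 promoter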
T1 sequence (O75030 whole entry): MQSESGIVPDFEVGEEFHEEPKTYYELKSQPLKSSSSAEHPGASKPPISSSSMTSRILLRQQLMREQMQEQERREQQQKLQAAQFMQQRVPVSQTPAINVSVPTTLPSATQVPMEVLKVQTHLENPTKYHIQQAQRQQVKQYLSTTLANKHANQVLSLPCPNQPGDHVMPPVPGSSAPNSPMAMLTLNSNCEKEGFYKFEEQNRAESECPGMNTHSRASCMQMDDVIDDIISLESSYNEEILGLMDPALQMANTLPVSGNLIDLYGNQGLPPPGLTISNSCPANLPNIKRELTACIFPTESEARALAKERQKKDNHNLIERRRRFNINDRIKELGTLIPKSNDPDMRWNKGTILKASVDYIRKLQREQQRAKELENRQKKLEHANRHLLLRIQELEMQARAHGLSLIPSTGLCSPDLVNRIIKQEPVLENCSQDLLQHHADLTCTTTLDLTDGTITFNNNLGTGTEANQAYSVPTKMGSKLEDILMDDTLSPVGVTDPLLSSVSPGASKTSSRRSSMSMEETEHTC

A-375 = assay: MITF: Counter assay: A375 proliferation Measured in Cell-Based System Using Plate Reader - 2084-03_Inhibitor_Dose_DryPowder_Activity. [Related pubchem assays (depositor defined):AID488944]; type: functional; conditions: Homo sapiens
Cytochrome P450 2D6 = Cytochrome P450 2D6 (Homo sapiens, UniProt P10635);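 further: CYP2D6 member of a cytochrome P450 panel assay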
Cytochrome P450 2C9 = Cytochrome P450 2C9 (Homo sapiens, UniProt P11712)
Bcl-2-related protein A1 = target: T2, Bcl-2-related protein A1 (Mus musculus, UniProt Q07440); type: functional;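 further: confirmatory dose–response counterscreen on Bfl-1, used to check hits from a UBC13 polyubiquitin inhibitor campaign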
T2 sequence (Q07440 whole entry): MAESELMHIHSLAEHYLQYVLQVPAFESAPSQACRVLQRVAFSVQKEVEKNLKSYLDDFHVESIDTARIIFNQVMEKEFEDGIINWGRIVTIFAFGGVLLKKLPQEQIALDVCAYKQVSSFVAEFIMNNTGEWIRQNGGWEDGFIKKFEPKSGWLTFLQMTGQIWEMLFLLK

[2] = target: T3, Ubiquitin-conjugating enzyme E2 N (Homo sapiens, UniProt P61088); type: functional
T3 sequence (P61088 whole entry): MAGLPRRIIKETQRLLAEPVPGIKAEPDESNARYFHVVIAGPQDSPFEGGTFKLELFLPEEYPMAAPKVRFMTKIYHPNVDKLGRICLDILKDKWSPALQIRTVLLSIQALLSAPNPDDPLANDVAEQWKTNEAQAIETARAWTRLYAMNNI

[3] = target: T3, Ubiquitin-conjugating enzyme E2 N; type: functional; remark: listed apart in the source
[4] = target: FAD-linked sulfhydryl oxidase ALR (Homo sapiens, UniProt P55789); assay: ALR-catalysed DTT oxidation blockers – biochemical, H2O2 detection, luminescence, cherry-pick, dose response (AID 493248)
HEK293 [5] = assay: EBV LMP1 TES2 canonical NF-kB signalling blockers – cell-based, HEK293, luciferase, cherry-pick, dose response (AID 588343); type: functional; conditions: Homo sapiens
[6] = target: T4, Replicative DNA helicase DnaB (Mycobacterium tuberculosis, UniProt P9WMR3); assay: DnaB intein splicing inhibitors, dose response, biochemical, cell-free fluorescence (AID 449749); type: functional
T4 sequence (P9WMR3 whole entry): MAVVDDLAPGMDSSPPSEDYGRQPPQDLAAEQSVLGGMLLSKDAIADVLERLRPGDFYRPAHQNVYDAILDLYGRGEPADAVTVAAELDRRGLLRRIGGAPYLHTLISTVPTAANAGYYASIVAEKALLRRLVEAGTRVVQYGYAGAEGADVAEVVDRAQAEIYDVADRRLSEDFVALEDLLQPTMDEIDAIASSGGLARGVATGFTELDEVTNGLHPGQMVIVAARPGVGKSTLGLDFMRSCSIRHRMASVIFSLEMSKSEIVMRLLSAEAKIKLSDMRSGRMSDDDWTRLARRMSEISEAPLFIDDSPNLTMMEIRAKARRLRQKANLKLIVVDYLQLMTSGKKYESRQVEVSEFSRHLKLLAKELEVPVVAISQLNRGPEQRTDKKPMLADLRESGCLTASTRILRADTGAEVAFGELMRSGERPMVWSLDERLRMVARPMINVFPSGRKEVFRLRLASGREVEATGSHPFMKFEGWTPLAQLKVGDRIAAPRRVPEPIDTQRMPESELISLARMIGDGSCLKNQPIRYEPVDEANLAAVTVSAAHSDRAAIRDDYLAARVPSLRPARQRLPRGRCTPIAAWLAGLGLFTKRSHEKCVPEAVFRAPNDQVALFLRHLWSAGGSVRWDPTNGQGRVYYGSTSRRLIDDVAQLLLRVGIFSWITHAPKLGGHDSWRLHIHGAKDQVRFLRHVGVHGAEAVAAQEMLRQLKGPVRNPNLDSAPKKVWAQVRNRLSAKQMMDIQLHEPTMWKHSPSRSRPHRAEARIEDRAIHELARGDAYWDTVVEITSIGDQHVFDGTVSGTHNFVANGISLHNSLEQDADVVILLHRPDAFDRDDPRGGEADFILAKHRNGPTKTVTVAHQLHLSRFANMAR

Protein RecA = target: T5, Protein RecA (Mycobacterium tuberculosis, UniProt P9WHJ3); assay: Fluorescence Cell-Free Homogeneous Dose Retest to Identify Inhibitors of RecA-Intein Splicing Activity. [Related pubchem assays (depositor defined):AID2097, AID2223, AID489010, AID492950]; type: functional
T5 sequence (P9WHJ3 whole entry): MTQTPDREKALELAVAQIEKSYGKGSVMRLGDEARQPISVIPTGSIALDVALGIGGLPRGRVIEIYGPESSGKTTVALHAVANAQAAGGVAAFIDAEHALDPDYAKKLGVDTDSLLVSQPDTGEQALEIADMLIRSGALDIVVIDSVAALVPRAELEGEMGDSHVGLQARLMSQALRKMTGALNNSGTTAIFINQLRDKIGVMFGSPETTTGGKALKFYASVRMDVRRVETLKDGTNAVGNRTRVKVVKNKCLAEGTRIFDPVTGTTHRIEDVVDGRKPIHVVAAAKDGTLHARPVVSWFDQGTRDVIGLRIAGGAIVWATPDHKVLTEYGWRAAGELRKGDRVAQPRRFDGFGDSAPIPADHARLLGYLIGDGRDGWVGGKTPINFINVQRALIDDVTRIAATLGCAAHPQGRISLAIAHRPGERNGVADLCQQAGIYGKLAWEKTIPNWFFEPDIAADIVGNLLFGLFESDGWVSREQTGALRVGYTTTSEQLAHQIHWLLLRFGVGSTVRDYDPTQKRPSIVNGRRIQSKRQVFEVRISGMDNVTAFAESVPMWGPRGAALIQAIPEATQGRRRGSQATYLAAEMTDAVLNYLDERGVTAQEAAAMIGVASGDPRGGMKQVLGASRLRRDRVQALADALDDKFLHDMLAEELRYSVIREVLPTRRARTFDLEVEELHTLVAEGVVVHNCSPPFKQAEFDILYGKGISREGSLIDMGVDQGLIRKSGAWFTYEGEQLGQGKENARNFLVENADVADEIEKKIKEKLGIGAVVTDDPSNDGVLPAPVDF

Tumor necrosis factor = Tumor necrosis factor (Homo sapiens, UniProt P01375); assay: analog potency on TNFa NF-kB signaling – cell-based, revised, SAR follow-up (AID 2337); type: functional
HEK293 [7] = assay: cells; conditions: Homo sapiens
Cytochrome P450 1A2 = target: T6, Cytochrome P450 1A2 (Homo sapiens, UniProt P05177);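 further: PubChem cytochrome P450 panel assay, CYP1A2 panel member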
T6 sequence (P05177 whole entry): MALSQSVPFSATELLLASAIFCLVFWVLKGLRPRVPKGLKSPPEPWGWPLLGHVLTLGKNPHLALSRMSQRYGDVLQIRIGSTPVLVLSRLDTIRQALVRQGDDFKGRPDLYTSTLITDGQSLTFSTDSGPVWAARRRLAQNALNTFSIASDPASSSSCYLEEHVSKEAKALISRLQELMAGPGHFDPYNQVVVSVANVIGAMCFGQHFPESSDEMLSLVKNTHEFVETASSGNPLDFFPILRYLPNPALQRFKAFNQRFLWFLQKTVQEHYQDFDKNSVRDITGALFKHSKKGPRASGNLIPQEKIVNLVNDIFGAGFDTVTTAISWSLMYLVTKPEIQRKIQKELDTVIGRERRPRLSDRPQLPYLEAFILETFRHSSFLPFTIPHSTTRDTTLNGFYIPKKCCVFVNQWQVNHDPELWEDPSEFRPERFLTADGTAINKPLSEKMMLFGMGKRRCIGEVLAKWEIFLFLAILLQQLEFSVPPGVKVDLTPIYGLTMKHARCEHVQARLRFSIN

HeLa = assay: ATP-based viability loss in HeLa cells – cell-based, CellTiter-Glo luminescence, cherry-pick samples, cytotoxicity control for MITF activator project, dose response (AID 540259); type: functional; conditions: Homo sapiens

Sequence of Cytochrome P450 2D6 (P10635 whole entry): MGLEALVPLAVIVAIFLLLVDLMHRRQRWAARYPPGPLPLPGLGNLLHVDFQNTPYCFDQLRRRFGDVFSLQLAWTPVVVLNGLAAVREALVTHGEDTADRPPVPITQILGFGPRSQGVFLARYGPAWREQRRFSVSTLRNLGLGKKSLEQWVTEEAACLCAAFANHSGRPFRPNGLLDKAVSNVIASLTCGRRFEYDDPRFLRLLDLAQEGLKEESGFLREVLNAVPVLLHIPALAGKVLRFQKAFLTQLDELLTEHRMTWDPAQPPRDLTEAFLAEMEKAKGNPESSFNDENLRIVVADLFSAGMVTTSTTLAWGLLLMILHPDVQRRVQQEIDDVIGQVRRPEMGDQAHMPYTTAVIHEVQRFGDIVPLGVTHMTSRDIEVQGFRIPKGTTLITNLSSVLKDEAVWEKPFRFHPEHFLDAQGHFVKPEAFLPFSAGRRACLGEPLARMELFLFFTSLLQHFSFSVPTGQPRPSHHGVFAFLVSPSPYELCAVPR
Sequence of Cytochrome P450 2C9 (P11712 whole entry): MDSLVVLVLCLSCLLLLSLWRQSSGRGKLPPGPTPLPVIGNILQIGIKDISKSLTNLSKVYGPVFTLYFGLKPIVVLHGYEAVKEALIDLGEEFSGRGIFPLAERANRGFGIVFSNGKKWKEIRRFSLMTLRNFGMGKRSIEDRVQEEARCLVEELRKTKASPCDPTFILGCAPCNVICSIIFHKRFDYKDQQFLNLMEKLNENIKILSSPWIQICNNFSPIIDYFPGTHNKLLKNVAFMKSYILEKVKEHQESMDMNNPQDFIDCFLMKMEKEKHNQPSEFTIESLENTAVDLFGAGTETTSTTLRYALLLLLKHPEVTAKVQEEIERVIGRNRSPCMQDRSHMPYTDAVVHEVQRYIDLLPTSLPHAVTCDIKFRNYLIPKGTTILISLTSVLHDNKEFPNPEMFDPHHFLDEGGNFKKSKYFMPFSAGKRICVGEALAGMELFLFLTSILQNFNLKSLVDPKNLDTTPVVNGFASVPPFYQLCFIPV
Sequence of FAD-linked sulfhydryl oxidase ALR (P55789 whole entry): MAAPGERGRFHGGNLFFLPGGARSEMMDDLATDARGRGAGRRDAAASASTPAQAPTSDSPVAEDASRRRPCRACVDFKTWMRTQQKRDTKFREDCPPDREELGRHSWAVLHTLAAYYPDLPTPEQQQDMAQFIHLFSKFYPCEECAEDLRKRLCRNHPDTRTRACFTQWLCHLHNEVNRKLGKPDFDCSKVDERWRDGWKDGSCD
Sequence of Tumor necrosis factor (P01375 whole entry): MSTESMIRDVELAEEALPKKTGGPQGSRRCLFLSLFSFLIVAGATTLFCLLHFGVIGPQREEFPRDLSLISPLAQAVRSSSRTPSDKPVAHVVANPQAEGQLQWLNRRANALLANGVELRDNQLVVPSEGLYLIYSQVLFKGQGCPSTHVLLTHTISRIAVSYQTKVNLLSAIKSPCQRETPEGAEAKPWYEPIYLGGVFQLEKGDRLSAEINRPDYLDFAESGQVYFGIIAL

Cc1cc(C)cc(NS(=O)(=O)c2ccc3c(c2)c(=O)n(C)c(=O)n3C)c1
AC50 [1]: 4.67 µM (active)
AC50 (A-375): 17.3 µM (active)

CC(=O)c1c(C(C)=O)c(C)n(NC(=O)c2ccccc2Cl)c1C
AC50 (Cytochrome P450 2D6): inconclusive
AC50 (Cytochrome P450 2C9): inconclusive

Cc1cc(Sc2nnc(/N=C/N(C)C)s2)c2ccccc2n1
IC50 (Bcl-2-related protein A1): > 20 µM (inactive)
IC50 [2]: 8.88 µM (active)
IC50 [3]: 11 µM (active)
AC50 [4]: 0.801 µM (active)
AC50 (HEK293 [5]): 2.9 µM (active)
AC50 [6]: 39.8 µM (active)
EC50 (Protein RecA): 10.3 µM (active)

CN(C)c1ccc(NC(=O)c2ccc(CN3CCCCC3)cc2)cc1
IC50 (Tumor necrosis factor): > 20 µM (inactive)
IC50 (HEK293 [7]): > 20 µM (inactive)

COc1ccc(OC)c2nc(O)c(CCNS(=O)(=O)c3ccc(C)cc3)cc12
AC50 (Cytochrome P450 1A2): 12.6 µM (inconclusive)
AC50 (Cytochrome P450 2D6): inconclusive

CCCC(=O)Nc1nc(-c2ccccc2)ns1
AC50 (HeLa): 64.7 µM (active)
